From patent US8163763B2, “Pyrimidine compounds, compositions and methods of use” (Genentech, Inc., priority 2008, dated 2012)
Where two headings read alike, the source gives them in different places.

Target: mTOR kinase (purified recombinant mTOR(1360-2549)+GBL) (Homo sapiens, UniProt P42345)
Assay: In vitro mTOR kinase assay (TR-FRET)
Type: biochemical
Description: a. In vitro mTOR Kinase Assay
The reaction is stopped by an addition of a Terbium-labeled phospho-specific antibody, e.g., Tb-labeled anti-p4E-BP1 T37/T46, (Invitrogen, product #PR8835A), EDTA, and TR-FRET buffer solution (Invitrogen, Product #PR3756B). Product formation is detected by way of time-resolved fluorescence resonance energy transfer (TR-FRET), which occurs when the phosphorylated substrate and labeled antibody are in close proximity due to phospho-specific binding. Enzymatic activity is measured as an increase in TR-FRET signal using a Perkin Elmer Envision plate reader.
Compound activity is tested in 10 point dose curves starting at the highest final concentration of 10 uM. They are serially diluted in 100% DMSO prior to further dilution with assay buffer. […] 8 μL of solution containing 2 nM Tb-anti-p4E-BP1 antibody & 10 mM EDTA diluted TR-FRET buffer is then added and incubated for 30 minutes to stop the reaction. The plate is scanned with the Envision plate reader. Ki values are calculated in Assay Explorer using the Morrison ATP-competitive tight binding equation for Ki apparent determination.

[1] = class of Ki in the mTOR kinase assay, read-out: mTOR Activity Level
[2] = mTOR kinase assay of Example 496, read-out: Ki

Sequence of mTOR kinase (purified recombinant mTOR(1360-2549)+GBL) (P42345 1360-2549): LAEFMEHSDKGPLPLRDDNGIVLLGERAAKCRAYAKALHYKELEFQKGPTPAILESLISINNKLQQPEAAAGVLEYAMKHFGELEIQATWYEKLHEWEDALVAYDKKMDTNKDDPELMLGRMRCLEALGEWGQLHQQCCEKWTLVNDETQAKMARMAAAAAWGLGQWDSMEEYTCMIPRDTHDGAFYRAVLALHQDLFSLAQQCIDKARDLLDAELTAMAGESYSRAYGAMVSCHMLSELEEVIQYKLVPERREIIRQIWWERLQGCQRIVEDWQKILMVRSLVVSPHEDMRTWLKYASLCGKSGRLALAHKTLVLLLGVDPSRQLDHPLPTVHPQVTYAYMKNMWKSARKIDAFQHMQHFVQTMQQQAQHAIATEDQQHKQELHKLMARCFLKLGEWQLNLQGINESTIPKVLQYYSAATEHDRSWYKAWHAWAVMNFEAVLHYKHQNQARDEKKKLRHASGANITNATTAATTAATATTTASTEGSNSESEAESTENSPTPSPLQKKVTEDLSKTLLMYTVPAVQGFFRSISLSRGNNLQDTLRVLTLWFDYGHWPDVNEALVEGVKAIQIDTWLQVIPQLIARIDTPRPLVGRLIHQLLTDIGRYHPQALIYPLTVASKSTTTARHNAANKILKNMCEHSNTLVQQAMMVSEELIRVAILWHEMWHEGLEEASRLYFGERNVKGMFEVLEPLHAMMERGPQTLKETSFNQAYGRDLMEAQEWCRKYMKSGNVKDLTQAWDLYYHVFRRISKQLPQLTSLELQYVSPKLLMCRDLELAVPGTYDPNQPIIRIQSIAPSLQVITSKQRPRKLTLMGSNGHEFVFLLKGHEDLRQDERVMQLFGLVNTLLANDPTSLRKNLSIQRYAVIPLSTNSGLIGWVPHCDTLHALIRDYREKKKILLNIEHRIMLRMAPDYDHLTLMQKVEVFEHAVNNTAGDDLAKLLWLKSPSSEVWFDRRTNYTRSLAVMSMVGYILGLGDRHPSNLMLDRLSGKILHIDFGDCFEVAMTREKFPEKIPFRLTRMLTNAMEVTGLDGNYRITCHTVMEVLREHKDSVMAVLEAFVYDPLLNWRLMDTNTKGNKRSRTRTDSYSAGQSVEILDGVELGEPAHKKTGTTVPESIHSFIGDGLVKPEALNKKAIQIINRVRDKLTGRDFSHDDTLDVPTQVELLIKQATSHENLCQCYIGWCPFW
Sequence of mTOR kinase (purified recombinant mTOR(1360-2549)+GBL) (Q9BVC4 whole entry partner): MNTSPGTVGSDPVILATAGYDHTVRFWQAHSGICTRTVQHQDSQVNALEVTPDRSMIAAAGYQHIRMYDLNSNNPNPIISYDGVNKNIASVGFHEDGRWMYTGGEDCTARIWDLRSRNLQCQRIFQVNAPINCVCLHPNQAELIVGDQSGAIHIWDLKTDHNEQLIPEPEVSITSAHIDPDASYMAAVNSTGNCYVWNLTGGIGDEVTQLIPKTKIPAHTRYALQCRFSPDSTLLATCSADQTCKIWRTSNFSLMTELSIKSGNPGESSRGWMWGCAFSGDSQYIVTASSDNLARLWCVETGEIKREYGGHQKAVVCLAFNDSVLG

| SMILES | Ki [1] | Ki [2] |
| --- | --- | --- |
| CCNC(=O)Nc1ccc(-c2nc3c(c(N4CCOCC4)n2)CN(c2ccnc(N)n2)C3)cc1 | < 100 nM | – |
| CCNC(=O)Nc1ccc(-c2nc3c(c(N4CCOCC4)n2)CN(C(=O)OCc2ccccc2)C3)cc1 | < 100 nM | – |
| CCNC(=O)Nc1ccc(-c2nc3c(c(N4CCOCC4)n2)CN(C(=O)OCC)C3)cc1 | < 100 nM | – |
| CCNC(=O)Nc1ccc(-c2nc3c(c(N4CCOCC4)n2)CN(c2ccnc(N)n2)CC3)cc1 | < 100 nM | – |
| CCNC(=O)Nc1ccc(-c2nc3c(c(N4CCOCC4)n2)CN(C(=O)c2ccccn2)CC3)cc1 | < 100 nM | – |
| CCNC(=O)Nc1ccc(-c2nc3c(c(N4CCOCC4)n2)CCN(c2ncccn2)C3)cc1 | < 100 nM | – |
| CCNC(=O)Nc1ccc(-c2nc3c(c(N4CCOCC4)n2)CCN(c2ccnc(N)n2)C3)cc1 | < 100 nM | – |
| CCNC(=O)Nc1ccc(-c2nc3c(c(N4CCOCC4)n2)CN(Cc2ccc(O)cc2)C3)cc1 | < 100 nM | – |
| CCNC(=O)Nc1ccc(-c2nc3c(c(N4CCOCC4)n2)CN(C2CCN(C(C)=O)CC2)C3)cc1 | < 100 nM | – |
| CCNC(=O)Nc1ccc(-c2nc3c(c(N4CCCOCC4)n2)CN(C(=O)OC(C)(C)C)C3)cc1 | < 100 nM | – |
| CCNC(=O)Nc1ccc(-c2nc3c(c(N4CCCOCC4)n2)CN(S(=O)(=O)c2ccccc2)C3)cc1 | < 100 nM | – |
| CCNC(=O)Nc1ccc(-c2nc3c(c(N4CCCOCC4)n2)CN(S(C)(=O)=O)C3)cc1 | < 100 nM | – |
| CCNC(=O)Nc1ccc(-c2nc3c(c(N4CCCOCC4)n2)CN(c2ncccn2)C3)cc1 | < 100 nM | – |
| CCNC(=O)Nc1ccc(-c2nc3c(c(N4CCOCC4)n2)CCN(C(=O)OCc2ccccc2)C3)cc1 | < 100 nM | – |
| CCNC(=O)Nc1ccc(-c2nc3c(c(N4CCOCC4)n2)CCN(C(=O)c2ccccn2)C3)cc1 | < 100 nM | – |
| CCNC(=O)Nc1ccc(-c2nc3c(c(N4CCOCC4)n2)CCN(C(=O)c2cccnc2)C3)cc1 | < 100 nM | – |
| CCNC(=O)Nc1ccc(-c2nc3c(c(N4CCOCC4)n2)CCN(C(=O)c2ccncc2)C3)cc1 | < 100 nM | – |
| CCNC(=O)Nc1ccc(-c2nc3c(c(N4CCOCC4)n2)CCN(C2CCN(C)CC2)C3)cc1 | < 100 nM | – |
| CCNC(=O)Nc1ccc(-c2nc3c(c(N4CCCOCC4)n2)CCN(C(C)=O)C3)cc1 | < 100 nM | – |
| CCNC(=O)Nc1ccc(-c2nc3c(c(N4CCCOCC4)n2)CCN(C(=O)OCc2ccccc2)C3)cc1 | < 100 nM | – |
| CCNC(=O)Nc1ccc(-c2nc3c(c(N4CCCOCC4)n2)CCN(c2ncccn2)C3)cc1 | < 100 nM | – |
| CCNC(=O)Nc1ccc(-c2nc3c(c(N4CCCOCC4)n2)CN(C2CCN(C(C)=O)CC2)C3)cc1 | < 100 nM | – |
| CC(=O)Nc1ccc(-c2nc3c(c(N4CCOCC4)n2)CN(c2ncccn2)C3)cc1 | 100 to 5000 nM | – |
| CC(=O)Nc1cccc(-c2nc3c(c(N4CCOCC4)n2)CN(c2ncccn2)C3)c1 | 100 to 5000 nM | – |
| CN(C)C(=O)Nc1ccc(-c2nc3c(c(N4CCOCC4)n2)CN(c2ncccn2)C3)cc1 | 100 to 5000 nM | – |
| CS(=O)(=O)Nc1ccc(-c2nc3c(c(N4CCOCC4)n2)CN(c2ncccn2)C3)cc1 | 100 to 5000 nM | – |
| NC(=O)c1ccc(-c2nc3c(c(N4CCOCC4)n2)CN(c2ncccn2)C3)cc1 | 100 to 5000 nM | – |

| SMILES | Ki [1] | Ki [2] |
| --- | --- | --- |
| CCNC(=O)Nc1ccc(-c2nc3c(c(N4CCOC[C@@H]4C)n2)CNCC3)cc1 | < 100 nM | – |
| CCNC(=O)Nc1ccc(-c2nc3c(c(N4CCOC[C@@H]4C)n2)CN(c2ccnc(N)n2)CC3)cc1 | < 100 nM | – |
| CCNC(=O)Nc1ccc(-c2nc3c(c(N4CCOC[C@@H]4C)n2)CCN(C(=O)OC(C)(C)C)C3)cc1 | < 100 nM | – |
| CCNC(=O)Nc1ccc(-c2nc3c(c(N4CCOC[C@@H]4C)n2)CCNC3)cc1 | < 100 nM | – |
| Cc1nnc(-c2ccc(-c3nc4c(c(N5CCOCC5)n3)CCN(c3ncccn3)C4)cc2)o1 | 100 to 5000 nM | – |
| c1cnc(N2CCc3c(nc(-c4ccc(-n5cccn5)cc4)nc3N3CCOCC3)C2)nc1 | 100 to 5000 nM | – |
| O=c1[nH]c2ccc(-c3nc4c(c(N5CCOCC5)n3)CCN(c3ncccn3)C4)cc2[nH]1 | 100 to 5000 nM | – |
| CCCNC(=O)Nc1ccc(-c2nc3c(c(N4CCOCC4)n2)CCN(c2ncccn2)C3)cc1 | 100 to 5000 nM | – |
| CC(C)NC(=O)Nc1ccc(-c2nc3c(c(N4CCOCC4)n2)CCN(c2ncccn2)C3)cc1 | 100 to 5000 nM | – |
| O=C(NCCO)Nc1ccc(-c2nc3c(c(N4CCOCC4)n2)CCN(c2ncccn2)C3)cc1 | 100 to 5000 nM | – |
| O=C(NCC1CC1)Nc1ccc(-c2nc3c(c(N4CCOCC4)n2)CCN(c2ncccn2)C3)cc1 | < 100 nM | – |
| CCNC(=O)Nc1ccc(-c2nc3c(c(N4CCOC[C@@H]4C)n2)CCN(c2ccnc(N)n2)C3)cc1 | < 100 nM | – |
| CCNC(=O)Nc1ccc(-c2nc3c(c(N4CCOCC4)n2)CCN(C(=O)c2cnco2)C3)cc1 | < 100 nM | – |
| CCNC(=O)Nc1ccc(-c2nc3c(c(N4CCOCC4)n2)CCN(C(=O)c2cocn2)C3)cc1 | < 100 nM | – |
| CCNC(=O)Nc1ccc(-c2nc3c(c(N4CCOCC4)n2)CCN(C(=O)c2ccnn2C)C3)cc1 | < 100 nM | – |
| CCNC(=O)Nc1ccc(-c2nc3c(c(N4CCOCC4)n2)CCN(C(=O)[C@H](C)O)C3)cc1 | < 100 nM | – |
| CCNC(=O)Nc1ccc(-c2nc3c(c(N4CCOCC4)n2)CCN(C(=O)c2c(C)oc4ncn(C)c(=O)c24)C3)cc1 | < 100 nM | – |
| CCNC(=O)Nc1ccc(-c2nc3c(c(N4CCOCC4)n2)CCN(C(=O)N2CCOCC2)C3)cc1 | < 100 nM | – |
| O=C(Nc1ccc(-c2nc3c(c(N4CCOCC4)n2)CCN(c2ncccn2)C3)cc1)NC1CC1 | < 100 nM | – |
| O=C(Nc1ccc(-c2nc3c(c(N4CCOCC4)n2)CCN(c2ncccn2)C3)cc1)NC1CCC1 | < 100 nM | – |
| CCNC(=O)Nc1ccc(-c2nc3c(c(N4CCOCC4)n2)CNCC3)cc1 | < 100 nM | – |
| CCNC(=O)Nc1ccc(-c2nc3c(c(N4CCOCC4)n2)CN(C(=O)c2cccnc2)CC3)cc1 | < 100 nM | – |
| CCNC(=O)Nc1ccc(-c2nc3c(c(N4CCOCC4)n2)CN(C(=O)c2ccncc2)CC3)cc1 | < 100 nM | – |
| Nc1ccc(-c2nc3c(c(N4CCOCC4)n2)CCN(c2ncccn2)C3)cc1 | 100 to 5000 nM | – |
| COc1ccc(CN2Cc3c(nc(-c4cnc(N)nc4)nc3N3CCOCC3)C2=O)cc1 | 100 to 5000 nM | – |
| CS(=O)(=O)Nc1ccc(-c2nc3c(c(N4CCOCC4)n2)CN(Cc2ccccc2)C3=O)cc1 | 100 to 5000 nM | – |
| CNC(=O)Nc1ccc(-c2nc3c(c(N4CCOCC4)n2)CN(Cc2ccc(OC)cc2)C3=O)cc1 | < 100 nM | – |

| SMILES | Ki [1] | Ki [2] |
| --- | --- | --- |
| CC(=O)Nc1ccc(-c2nc3c(c(N4CCOCC4)n2)CN(Cc2ccccc2)C3=O)cc1 | 100 to 5000 nM | – |
| CCNC(=O)Nc1ccc(-c2nc3c(c(N4CCOCC4)n2)CN(C(=O)c2ccccc2Cl)CC3)cc1 | < 100 nM | – |
| CCNC(=O)Nc1ccc(-c2nc3c(c(N4CCOCC4)n2)CN(C(=O)c2ccc(Cl)cc2)CC3)cc1 | < 100 nM | – |
| CCNC(=O)Nc1ccc(-c2nc3c(c(N4CCOCC4)n2)CN(C(=O)/C=C/c2ccccc2)CC3)cc1 | < 100 nM | – |
| CC(C)(C)OC(=O)N1Cc2nc(-c3cnc(N)nc3)nc(N3CCOCC3)c2C1 | 100 to 5000 nM | – |
| CCNC(=O)Nc1ccc(-c2nc3c(c(C4CCOCC4)n2)CN(C(=O)OC(C)(C)C)C3)cc1 | 100 to 5000 nM | – |
| CCNC(=O)Nc1ccc(-c2nc3c(c(C4=CCOCC4)n2)CCN(c2ncccn2)C3)cc1 | 100 to 5000 nM | – |
| CCNC(=O)Nc1ccc(-c2nc3c(c(C4CCOCC4)n2)CCN(c2ncccn2)C3)cc1 | 100 to 5000 nM | – |
| CCNC(=O)Nc1ccc(-c2nc3c(c(-c4cccnc4)n2)CCN(Cc2ccccc2)C3)cc1 | 100 to 5000 nM | – |
| CCNC(=O)Nc1ccc(-c2nc3c(c(N4CCOCC4)n2)CN(Cc2ccccc2)C3)cc1 | < 100 nM | – |
| CC(=O)Nc1ccc(-c2nc3c(c(N4CCCOCC4)n2)CN(Cc2ccccc2)C3=O)cc1 | – | 252 nM |
| CCNC(=O)Nc1ccc(-c2nc3c(c(N4CCOCC4)n2)CCN2C(=O)N(CC)CC[C@@H]32)cc1 | – | 5 nM |
| CCNC(=O)Nc1ccc(-c2nc3c(c(N4CCOC[C@@H]4C)n2)CCN(c2nc(C)cc(C)n2)C3)cc1 | – | 4 nM |
| C[C@H]1COCCN1c1nc(-c2ccc(NC(=O)NCC(F)F)cc2)nc2c1CN(C(=O)c1nccs1)CC2 | – | 32 nM |
| CC(C)(C)OC(=O)N1Cc2nc(-c3cnc(N)nc3)nc(C3C=COCC3)c2C1 (stereo not shown) | – | 753 nM |
| CCNC(=O)Nc1ccc(-c2nc3c(c(N4CCOCC4)n2)CN(Cc2cccc(O)c2)C3)cc1 [drawing 553] | < 100 nM | – |
| CCNC(=O)Nc1ccc(-c2nc3c(c(N4CCCOCC4)n2)CN(C(=O)OCc2ccccc2)C3)cc1 [drawing 567] | < 100 nM | – |
| O=C(Nc1ccc(-c2nc3c(c(N4CCOCC4)n2)CN(c2ncccn2)C3)cc1)NC1CCCC1 [drawing 572] | < 100 nM | – |
| c1cnc(N2CCc3c(nc(-c4ccc5[nH]ncc5c4)nc3N3CCOCC3)C2)nc1 [drawing 585] | 100 to 5000 nM | – |
| CCNC(=O)Nc1ccc(-c2nc3c(c(N4CCOCC4)n2)CN(C(=O)Cc2ccccc2)CC3)cc1 [drawing 603] | < 100 nM | – |
| CCNC(=O)Nc1ccc(-c2nc3c(c(N4CCOCC4)n2)CN(Cc2cccc(O)c2)C3)cc1 [drawing 624] | – | 9 nM |
| CCNC(=O)Nc1ccc(-c2nc3c(c(N4CCCOCC4)n2)CN(C(=O)OCc2ccccc2)C3)cc1 [drawing 625] | – | 2 nM |
| O=C(Nc1ccc(-c2nc3c(c(N4CCOCC4)n2)CN(c2ncccn2)C3)cc1)NC1CCCC1 [drawing 626] | – | 41.2 nM |
| c1cnc(N2CCc3c(nc(-c4ccc5[nH]ncc5c4)nc3N3CCOCC3)C2)nc1 [drawing 628] | – | 636 nM |
| CCNC(=O)Nc1ccc(-c2nc3c(c(N4CCOCC4)n2)CN(C(=O)Cc2ccccc2)CC3)cc1 [drawing 633] | – | 52 nM |
